ChEMBL document CHEMBL1909294, “Translating clinical findings into knowledge in drug safety evaluation--drug induced liver injury prediction system (DILIps)” (PLoS Comput Biol, 2011)
Where a SMILES comes first, the peptide text is derived from it. Bridges are numbered along the chain shown (N, C = ends). [ ]: non-standard residue; d: D form. The star is where a group is joined. Threoninol(2S,3R) = C[C@@H](O)[C@H](CO)N*

Assays:
Hepatotoxicity [1] = tested on: Hepatotoxicity;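 as to HepSE Combined Scores: combined hepatic side effect score as listed in the training data of the Drug Induced Liver Injury Prediction System (DILIps)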;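 as to HepSE bilirubinemia: bilirubinemia hepatic side effect score drawn from the DILIps training data, a prediction system for drug-induced liver injury; call rule not given here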;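 as to HepSE cholecystitis: Cholecystitis-related hepatic side effect score drawn from the DILIps (drug-induced liver injury prediction) training data set; call rule not given here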;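 as to HepSE cirrhosis: cirrhosis hepatic side effect score taken from the DILIps (drug-induced liver injury prediction) training set; call rule not given here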; as to HepSE liver disease: call rule not given here;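 as to HepSE liver fatty: hepatic side effect score for fatty liver, taken from the DILIps training set for predicting drug-induced liver injury; call rule not given here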;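 as to HepSE liver function tests abnormal: hepatic side effect score taken from the DILIps (drug-induced liver injury prediction system) training data, here covering abnormal liver function test findings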
Hepatotoxicity [2] = tested on: Hepatotoxicity; remark: listed apart in the source;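 as to HepSE bilirubinemia: bilirubinemia hepatic side effect score drawn from the DILIps training data, a prediction system for drug-induced liver injury; call rule not given here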;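 as to HepSE cholecystitis: Cholecystitis-related hepatic side effect score drawn from the DILIps (drug-induced liver injury prediction) training data set; call rule not given here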;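 as to HepSE cirrhosis: cirrhosis hepatic side effect score taken from the DILIps (drug-induced liver injury prediction) training set; call rule not given here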; as to HepSE liver disease: call rule not given here;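 as to HepSE liver fatty: hepatic side effect score for fatty liver, taken from the DILIps training set for predicting drug-induced liver injury; call rule not given here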;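 as to HepSE liver function tests abnormal: hepatic side effect score taken from the DILIps (drug-induced liver injury prediction system) training data, here covering abnormal liver function test findings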
Hepatotoxicity [3] = tested on: Hepatotoxicity; remark: listed apart in the source;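 as to HepSE bilirubinemia: bilirubinemia hepatic side effect score drawn from the DILIps training data, a prediction system for drug-induced liver injury; call rule not given here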;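 as to HepSE cholecystitis: Cholecystitis-related hepatic side effect score drawn from the DILIps (drug-induced liver injury prediction) training data set; call rule not given here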;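 as to HepSE cirrhosis: cirrhosis hepatic side effect score taken from the DILIps (drug-induced liver injury prediction) training set; call rule not given here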; as to HepSE liver disease: call rule not given here;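 as to HepSE liver fatty: hepatic side effect score for fatty liver, taken from the DILIps training set for predicting drug-induced liver injury; call rule not given here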;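 as to HepSE liver function tests abnormal: hepatic side effect score taken from the DILIps (drug-induced liver injury prediction system) training data, here covering abnormal liver function test findings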
Hepatotoxicity [4] = tested on: Hepatotoxicity; remark: listed apart in the source;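 as to HepSE bilirubinemia: bilirubinemia hepatic side effect score drawn from the DILIps training data, a prediction system for drug-induced liver injury; call rule not given here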;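 as to HepSE cholecystitis: Cholecystitis-related hepatic side effect score drawn from the DILIps (drug-induced liver injury prediction) training data set; call rule not given here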;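 as to HepSE cirrhosis: cirrhosis hepatic side effect score taken from the DILIps (drug-induced liver injury prediction) training set; call rule not given here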; as to HepSE liver disease: call rule not given here;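 as to HepSE liver fatty: hepatic side effect score for fatty liver, taken from the DILIps training set for predicting drug-induced liver injury; call rule not given here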;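 as to HepSE liver function tests abnormal: hepatic side effect score taken from the DILIps (drug-induced liver injury prediction system) training data, here covering abnormal liver function test findings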
Hepatotoxicity [5] = tested on: Hepatotoxicity; remark: listed apart in the source; as to HepSE liver disease: call rule not given here
Hepatotoxicity [6] = tested on: Hepatotoxicity; remark: listed apart in the source; as to HepSE liver disease: call rule not given here
Hepatotoxicity [7] = tested on: Hepatotoxicity; remark: listed apart in the source
Hepatotoxicity [8] = tested on: Hepatotoxicity; remark: listed apart in the source
Hepatotoxicity [9] = tested on: Hepatotoxicity; remark: listed apart in the source
Hepatotoxicity [10] = tested on: Hepatotoxicity; remark: listed apart in the source
Hepatotoxicity [11] = tested on: Hepatotoxicity; remark: listed apart in the source
Hepatotoxicity [12] = tested on: Hepatotoxicity; remark: listed apart in the source
Hepatotoxicity [13] = tested on: Hepatotoxicity; remark: listed apart in the source
Hepatotoxicity [14] = tested on: Hepatotoxicity; remark: listed apart in the source

| Structure (SMILES) | HepSE_liver fatty (Hepatotoxicity [1]) | HepSE_liver function tests abnormal (Hepatotoxicity [2]) | HepSE_bilirubinemia (Hepatotoxicity [3]) | HepSE_cholecystitis (Hepatotoxicity [4]) | HepSE_cirrhosis (Hepatotoxicity [5]) | HepSE_cholelithiasis (Hepatotoxicity [6]) | HepSE_liver disease (Hepatotoxicity [7]) | HepSE_hepatitis (Hepatotoxicity [8]) | HepSE_Combined Scores (Hepatotoxicity [9]) | HepSE_hepatomegaly (Hepatotoxicity [10]) | HepSE_hepatic necrosis (Hepatotoxicity [11]) | HepSE_elevated liver function tests (Hepatotoxicity [12]) | HepSE_jaundice (Hepatotoxicity [13]) | HepSE_hepatic failure (Hepatotoxicity [14]) | other results |
| --- | --- | --- | --- | --- | --- | --- | --- | --- | --- | --- | --- | --- | --- | --- | --- |
| N#Cc1cc(NC(=O)C(=O)O)c(Cl)c(NC(=O)C(=O)O)c1 [LODOXAMIDE] | 0 | 0 | 0 | 0 | 0 | 0 | 0 | 0 | 0 | 0 | 0 | 0 | 0 | 0 | – |
| O=C(O)CCCc1ccc(N(CCCl)CCCl)cc1 [CHLORAMBUCIL] | 0 | 0 | 0 | 0 | 0 | 0 | 0 | 0 | 1 | 0 | 0 | 0 | 1 | 0 | – |
| CC1=C(CC(=O)O)c2cc(F)ccc2/C1=C\c1ccc([S+](C)[O-])cc1 (stereo not drawn) | 0 | 0 | 0 | 1 | 0 | 0 | 0 | 1 | 4 | 0 | 0 | 0 | 1 | 1 | – |
| Cc1onc(-c2c(Cl)cccc2Cl)c1C(=O)N[C@@H]1C(=O)N2[C@@H]1SC(C)(C)[C@@H]2C(=O)O [DICLOXACILLIN] | 0 | 1 | 0 | 0 | 0 | 0 | 0 | 1 | 2 | 0 | 0 | 0 | 0 | 0 | – |
| C=C1C[C@@H]2[C@H](CC[C@]3(C)C(=O)CC[C@@H]23)[C@@]2(C)C=CC(=O)C=C12 [EXEMESTANE] | 0 | 0 | 0 | 0 | 0 | 0 | 0 | 1 | 1 | 0 | 0 | 0 | 0 | 0 | – |
| CCOC(=O)CC(SP(=S)(OC)OC)C(=O)OCC (stereo not drawn) [MALATHION] | 0 | 0 | 0 | 0 | 0 | 0 | 0 | 0 | 0 | 0 | 0 | 0 | 0 | 0 | – |
| C[C@@H](O)[C@H](CO)NC(=O)[C@@H]1CSSC[C@H](NC(=O)[C@H](N)Cc2ccccc2)C(=O)N[C@@H](Cc2ccccc2)C(=O)N[C@H](Cc2c[nH]c3ccccc23)C(=O)N[C@@H](CCCCN)C(=O)N[C@@H]([C@@H](C)O)C(=O)N1 (H-[dF]CF[dW]KTC-{Threoninol(2S,3R)}; disulfide 2-7) | 1 | 0 | 1 | 1 | 0 | 1 | 0 | 1 | 6 | 0 | 0 | 0 | 1 | 0 | – |
| O=c1[nH]c(=O)n([C@H]2C[C@H](O)[C@@H](CO)O2)cc1I [IDOXURIDINE] | 0 | 0 | 0 | 0 | 0 | 0 | 0 | 0 | 0 | 0 | 0 | 0 | 0 | 0 | – |
| CN(C)CCc1c[nH]c2ccc(CS(=O)(=O)N3CCCC3)cc12 [ALMOTRIPTAN] | 0 | 0 | 0 | 0 | 0 | 0 | 0 | 0 | 0 | 0 | 0 | 0 | 0 | 0 | – |
| NC[C@H]1O[C@H](O[C@H]2[C@H](O)[C@@H](O[C@H]3O[C@H](CO)[C@@H](O)[C@H](N)[C@H]3O)[C@H](N)C[C@@H]2N)[C@H](N)C[C@@H]1O [TOBRAMYCIN] | 0 | 0 | 0 | 0 | 0 | 0 | 0 | 0 | 0 | 0 | 0 | 0 | 0 | 0 | – |
| CCC1(c2ccc(N)cc2)CCC(=O)NC1=O (stereo not drawn) [AMINOGLUTETHIMIDE] | 0 | 0 | 0 | 0 | 0 | 0 | 0 | 0 | 0 | 0 | 0 | 0 | 0 | 0 | – |
| C=C(CC)C(=O)c1ccc(OCC(=O)O)c(Cl)c1Cl [ETHACRYNIC ACID] | 0 | 1 | 0 | 0 | 0 | 0 | 0 | 0 | 2 | 0 | 0 | 0 | 1 | 0 | – |
| N=C(N)NCCN1CCCCCCC1 [GUANETHIDINE] | 0 | 0 | 0 | 0 | 0 | 0 | 0 | 0 | 0 | 0 | 0 | 0 | 0 | 0 | – |
| CN(C)[C@@H]1C(O)=C(C(N)=O)C(=O)[C@@]2(O)C(O)=C3C(=O)c4c(O)cccc4[C@@](C)(O)[C@H]3[C@H](O)[C@@H]12 [OXYTETRACYCLINE] | 0 | 0 | 0 | 0 | 0 | 0 | 0 | 0 | 0 | 0 | 0 | 0 | 0 | 0 | – |
| CC(O)(CS(=O)(=O)c1ccc(F)cc1)C(=O)Nc1ccc(C#N)c(C(F)(F)F)c1 (stereo not drawn) [BICALUTAMIDE] | 0 | 1 | 0 | 0 | 0 | 0 | 0 | 0 | 3 | 0 | 0 | 0 | 1 | 1 | – |
| CC(C)(C)NC(=O)[C@@H]1C[C@@H]2CCCC[C@@H]2CN1C[C@@H](O)[C@H](Cc1ccccc1)NC(=O)[C@H](CC(N)=O)NC(=O)c1ccc2ccccc2n1 | – | – | – | – | – | – | – | – | – | – | – | – | – | – | HepSE_liver fatty (Hepatotoxicity [1]; Liver): 0; HepSE_liver function tests abnormal (Hepatotoxicity [2]; Liver): 0; HepSE_bilirubinemia (Hepatotoxicity [3]; Liver): 1; HepSE_cholecystitis (Hepatotoxicity [4]; Liver): 0; HepSE_cirrhosis (Hepatotoxicity [5]; Liver): 0; HepSE_cholelithiasis (Hepatotoxicity [6]; Liver): 1; HepSE_liver disease (Hepatotoxicity [7]; Liver): 1; HepSE_hepatitis (Hepatotoxicity [8]; Liver): 1; HepSE_Combined Scores (Hepatotoxicity [9]; Liver): 7; HepSE_hepatomegaly (Hepatotoxicity [10]; Liver): 1; HepSE_hepatic necrosis (Hepatotoxicity [11]; Liver): 0; HepSE_elevated liver function tests (Hepatotoxicity [12]; Liver): 1; HepSE_jaundice (Hepatotoxicity [13]; Liver): 1; HepSE_hepatic failure (Hepatotoxicity [14]; Liver): 0 |
| OC[C@H]1O[C@@H](n2cnc3c2NC=NC[C@H]3O)C[C@@H]1O [PENTOSTATIN] | 0 | 1 | 0 | 0 | 0 | 0 | 1 | 0 | 3 | 0 | 0 | 1 | 0 | 0 | – |
